Test system: CD4+ CD25− T cells
Assay: DNA microarray transcriptional profile of T cells activated in Th17-priming conditions
Format: cell-based, mouse
Conditions: 10 nM, Th17-priming conditions

## O=C(CC1NCCCC1O)Cn1cnc2cc(Br)c(Cl)cc2c1=O (racemic) [HF, 7-bromo-6-chloro-3-[3-(3-hydroxy-2-piperidinyl)-2-oxopropyl]-4(3H)-quinazolinone]
3 hr
  Trib3 transcript fold increase, HF vs. MAZ1310: 7.1 ± 2.0 fold
  Trim12 transcript fold increase, HF vs. MAZ1310: 2.4 ± 0.1 fold
  Vegfa transcript fold increase, HF vs. MAZ1310: 3.2 ± 0.2 fold
  Xist transcript fold increase, HF vs. MAZ1310: 3.5 ± 1.7 fold
6 hr
  Aars transcript fold increase, HF vs. MAZ1310: 2.6 ± 0.2 fold
  Aff1 transcript fold increase, HF vs. MAZ1310: 2.6 ± 0.3 fold
  Aldh18a1 transcript fold increase, HF vs. MAZ1310: 2.7 ± 0.2 fold
  Asns transcript fold increase, HF vs. MAZ1310: 7.1 ± 0.5 fold
  Atf3 transcript fold increase, HF vs. MAZ1310: 3.2 ± 0.5 fold
  Atf5 transcript fold increase, HF vs. MAZ1310: 8.9 ± 1.0 fold
  Cars transcript fold increase, HF vs. MAZ1310: 2.2 ± 0.3 fold
  Cd274 transcript fold increase, HF vs. MAZ1310: 2.0 ± 0.1 fold
  Cebpb transcript fold increase, HF vs. MAZ1310: 8.0 ± 0.2 fold
  Cebpg transcript fold increase, HF vs. MAZ1310: 3.1 ± 0.5 fold
  Chd2 transcript fold increase, HF vs. MAZ1310: 2.5 ± 0.5 fold
  Cldn12 transcript fold increase, HF vs. MAZ1310: 4.6 ± 0.5 fold
  Clic4 transcript fold increase, HF vs. MAZ1310: 2.8 ± 0.2 fold
  Cth transcript fold increase, HF vs. MAZ1310: 16.0 ± 1.6 fold
  Cxcl10 transcript fold increase, HF vs. MAZ1310: 2.1 ± 0.1 fold
  Ddit3 transcript fold increase, HF vs. MAZ1310: 5.0 ± 0.7 fold
  Eif4Ebp1 transcript fold increase, HF vs. MAZ1310: 5.3 ± 0.3 fold
  Gpt2 transcript fold increase, HF vs. MAZ1310: 16.7 ± 2.2 fold
  Herpud1 transcript fold increase, HF vs. MAZ1310: 2.7 ± 0.1 fold
  Icam1 transcript fold increase, HF vs. MAZ1310: 2.8 ± 0.3 fold
  Irf1 transcript fold increase, HF vs. MAZ1310: 2.6 ± 0.2 fold
  Lars transcript fold increase, HF vs. MAZ1310: 2.1 ± 0.0 fold
  Mpa2l transcript fold increase, HF vs. MAZ1310: 7.3 ± 1.7 fold
  Ncoa7 transcript fold increase, HF vs. MAZ1310: 3.2 ± 0.5 fold
  Nfkbiz transcript fold increase, HF vs. MAZ1310: 1.9 ± 0.3 fold
  Pck2 transcript fold increase, HF vs. MAZ1310: 7.4 ± 0.9 fold
  Pdcd1lg2 transcript fold increase, HF vs. MAZ1310: 2.5 ± 0.3 fold
  Phgdh transcript fold increase, HF vs. MAZ1310: 4.2 ± 0.3 fold
  Psat1 transcript fold increase, HF vs. MAZ1310: 2.6 ± 0.0 fold
  Psph transcript fold increase, HF vs. MAZ1310: 3.4 ± 0.3 fold
  Pvr transcript fold increase, HF vs. MAZ1310: 2.0 ± 0.1 fold
  Pycr1 transcript fold increase, HF vs. MAZ1310: 6.6 ± 0.4 fold
  Pycs transcript fold increase, HF vs. MAZ1310: 2.3 ± 0.1 fold
  Sars1 transcript fold increase, HF vs. MAZ1310: 2.3 ± 0.1 fold
  Sesn2 transcript fold increase, HF vs. MAZ1310: 2.3 ± 0.2 fold
  Slamf7 transcript fold increase, HF vs. MAZ1310: 2.1 ± 0.2 fold
  Slc1a4 transcript fold increase, HF vs. MAZ1310: 4.6 ± 0.4 fold
  Slc5a9 transcript fold increase, HF vs. MAZ1310: 5.7 ± 0.6 fold
  Slc7a3 transcript fold increase, HF vs. MAZ1310: 6.5 ± 0.9 fold
  Slc14a1 transcript fold increase, HF vs. MAZ1310: 6.6 ± 0.4 fold
  Trib3 transcript fold increase, HF vs. MAZ1310: 18.5 ± 8.5 fold
  Trim12 transcript fold increase, HF vs. MAZ1310: 4.9 ± 0.7 fold
  Vegfa transcript fold increase, HF vs. MAZ1310: 5.8 ± 0.5 fold
  Xist transcript fold increase, HF vs. MAZ1310: 2.1 ± 0.7 fold
